Measured values reported in ChEMBL document CHEMBL1125993, “The function of S1 subsite pocket of carboxypeptidase A” (Bioorg Med Chem Lett, 1991).

The molecules below were run against T1, Carboxypeptidase A1 (Bos taurus, UniProt P00730) (assay: Compound was evaluated for binding affinity against carboxypeptidase A (CPA), expressed as inhibitory constant (Ki)).
T1 sequence (P00730 whole entry): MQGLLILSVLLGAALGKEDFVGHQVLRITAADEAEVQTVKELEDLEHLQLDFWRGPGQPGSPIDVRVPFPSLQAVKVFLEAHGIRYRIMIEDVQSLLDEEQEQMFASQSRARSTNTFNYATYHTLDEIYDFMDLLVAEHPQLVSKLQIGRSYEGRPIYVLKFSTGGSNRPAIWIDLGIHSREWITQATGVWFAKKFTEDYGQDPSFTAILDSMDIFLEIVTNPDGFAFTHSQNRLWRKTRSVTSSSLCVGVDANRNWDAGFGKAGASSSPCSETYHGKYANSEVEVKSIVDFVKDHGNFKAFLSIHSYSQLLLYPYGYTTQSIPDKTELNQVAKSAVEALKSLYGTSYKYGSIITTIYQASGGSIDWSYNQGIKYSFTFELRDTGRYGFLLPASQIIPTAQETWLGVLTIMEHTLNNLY
With O=C(O)C(CS)Cc1ccc(Cl)cc1 (centres undefined) the Ki was 160 nM. Work on CC(c1ccccc1)C(CS)C(=O)O (centres undefined) yielded a Ki of 105 nM. With CCC(c1ccccc1)C(CS)C(=O)O (centres undefined) the Ki was 1500 nM. For O=C(O)C(CS)Cc1ccc(Br)cc1 (centres undefined), the Ki was 150 nM.
